In US9586896B2, “Nitroxyl donors with improved therapeutic index” (Cardioxyl Pharmaceuticals, Inc., priority 2013, dated 2017):

Assay: Exploratory studies on the cause of the side effects of CXL-1020
Conditions: in vivo
Protocol: Exploratory studies were continued to determine the cause of the undesirable side effects of CXL-1020 at the higher, but still clinically desirable, doses. […] Studies were conducted with alternative nitroxyl donors that were structurally unrelated to CXL-1020 but had similar half-lives for nitroxyl donation (half-lives of about 2 minutes). For these donors, nitroxyl was at its highest intravascular concentration at the catheter tip and immediately downstream in the vein into which the catheter had been inserted. In all instances, local vascular side effects at the catheter tip were observed.

CS(=O)(=O)c1ccccc1S(=O)O [byproduct of CXL-1020]
side effect studies with the byproduct: negative
